Source: patent US6110934A, “Substituted benzamide derivatives and their use as anticonvulsants” (SmithKline Beecham p.l.c., priority 1996, dated 2000)
Where a name gives a salt, the structure may show the parent alone.

Molecular target: novel receptor obtainable from rat forebrain tissue
Test: Radioligand binding assay, displacement of [3H]-Compound A
Conditions: competition with [3H]-Compound A (usually 20 nM), room temperature, 1 hour
Procedure: The affinity of test compounds to the novel receptor site is assessed as follows. Whole forebrain tissue is obtained from rats. The tissue is first homogenised in buffer (usually 50 mM Tris/HCl, pH 7.4). The homogenised tissue is washed by centrifugation and resuspension in the same buffer, then stored at -70° C. until used. […] The final concentration of [3H]-Compound A in the mixture is usually 20 nM. The mixture is incubated at room temperature for 1 hour. [3H]-Compound A bound to the tissue is then separated from unbound [3H]-Compound A by filtration through Watman GF/B glass fibre filters. The filters are then washed rapidly with ice-cold buffer. The amount of radioactivity bound to the tissue trapped on the filters is measured by addition of liquid scintillation cocktail to the filters followed by counting in a liquid scintillation counter. In order to determine the amount of "specific" binding of [3H]-Compound A, parallel assays are carried out as above in which [3H]-Compound A and tissue are incubated together in the presence of unlabelled Compound A (usually 3 μM). The amount of binding of [3H]-Compound A remaining in the presence of this unlabelled compound is defined as "non-specific" binding. This amount is subtracted from the total amount of [3H]-Compound A binding (i.e. that present in the absence of unlabelled compound) to obtain the amount of "specific" binding of [3H]-Compound A to the novel site. The affinity of the binding of test compounds to the novel site can be estimated by incubating together [3H]-Compound A and tissue in the presence of a range of concentrations of the compound to be tested. The decrease in the level of specific [3H]-Compound A binding as a result of competition by increasing concentrations of the compound under test is plotted graphically, and non-linear regression analysis of the resulthant curve is used to provide an estimate of compound affinity in terms of pKi value.

pKi, greater than 7:
COc1cc(N)c(Cl)cc1C(=O)Nc1cccc2c1CCN(C)C2.Cl [Example 1, N-(2-Methyl-1,2,3,4-tetrahydroisoquinolin-5-yl)-4-amino-5-chloro-2-methoxy-benzamide Hydrochloride]
COc1cc(OC(C)C)c(Br)cc1C(=O)Nc1cccc2c1CCN(C)C2.Cl [Example 45, N-(2-Methyl-1,2,3,4-tetrahydroisoquinolin-5-yl)-5-bromo-4-iso-propoxy-2-methoxybenzamide, Hydrochloride]
COc1cc(OC)c(C(=O)Nc2ccc3c(c2)CN(C)CC3)cc1Br.Cl [Example 52, N-(2-Methyl-1,2,3,4-tetrahydroisoquinolin-7-yl)-5-bromo-2,4-dimethoxybenzamide, Hydrochloride Salt]
COc1ccc(C(=O)C(C)C)cc1C(=O)Nc1cccc2c1CCN(C)C2 [Example 49, N-(2-Methyl-1,2,3,4-tetrahydroisoquinolin-5-yl) 5-iso-butyroyl-2-methoxy-benzamide Hydrochloride]
CCCOc1cc(N)c(Cl)cc1C(=O)Nc1cccc2c1CCN(C)C2 [Example 10, N-(2-Methyl-1,2,3,4-tetrahydroisoquinolin-5-yl)-4-amino-5-chloro-2-propoxy-benzamide]
CCc1cc(OC)c(C(=O)Nc2cccc3c2CCN(C)C3)cc1Cl [Example 37, N-(2-Methyl-1,2,3,4-tetrahydroisoquinolin-5-yl)-4-ethyl-2-methoxy-5-chloro Benzamide, Hydrochloride]
COc1cc(C)c(Cl)cc1C(=O)Nc1cccc2c1CCN(C)C2 [Example 20, N-(2-Methyl-1,2,3,4-tetrahydroisoquinolin-5-yl)-5-chloro-2-methoxy-4-methylbenzamide]
CCc1cc(OC)c(C(=O)Nc2cccc3c2CCN(C)C3)cc1C(F)(F)F.Cl [Example 68, N-(2-Methyl-1,2,3,4-tetrahydroisoquinolin-5-yl)-4-ethyl-2-methoxy-5-trifluoromethylbenzamide, Hydrochloride]
COc1cc(C)c(Br)cc1C(=O)Nc1cccc2c1CCN(C)C2 [Example 25, N-(2-Methyl-1,2,3,4-tetrahydroisoquinolin-5-yl)-5-bromo-2-methoxy-4-methylbenzamide]
COc1cc(OC(C)C)c(Cl)cc1C(=O)Nc1cccc2c1CCN(C)C2.Cl [Example 71, N-(2-Methyl-1,2,3,4-tetrahydroisoquinolin-5-yl)-5-chloro-2-methoxy-4-iso-propoxybenzamide, Hydrochloride]
COc1cc(OC)c(C(=O)Nc2cccc3c2CCNC3)cc1Cl [Example 19, N-(1,2,3,4-Tetrahydroisoquinolin-5-yl)-5-chloro-2,4-dimethoxybenzamide]
COc1ccc(C(=O)C(C)(C)C)cc1C(=O)Nc1cccc2c1CCN(C)C2.Cl [Example 50, N-(2-Methyl-1,2,3,4-tetrahydroisoquinolin-5-yl)-5-pivaloyl-2-methoxybenzamide, Hydrochloride]
COc1cc(C(C)C)c(C(F)(F)F)cc1C(=O)Nc1cccc2c1CCN(C)C2.Cl [Example 46, N-(2-Methyl-1,2,3,4-tetrahydroisoquinolin-5-yl)-4-iso-propyl-5-trifluoromethyl-2-methoxybenzamide, Hydrochloride]
COc1cc(OC)c(C(=O)Nc2cccc3c2CCN(C)C3)cc1Br [Example 17, N-(2-Methyl-1,2,3,4-tetrahydroisoquinolin-5-yl)-5-bromo-2,4-dimethoxybenzamide]
COc1cc(N)c(I)cc1C(=O)Nc1cccc2c1CCN(C)C2 [Example 13, N-(2-Methyl-1,2,3,4-tetrahydroisoquinolin-5-yl)-4-amino-5-iodo-2-methoxybenzamide]
COc1cc(C(C)(C)C)ccc1C(=O)Nc1cccc2c1CCN(C)C2.Cl [Example 35, N-(2-Methyl-1,2,3,4-tetrahydroisoquinolin-5-yl)-4-tert-butyl-2-methoxybenzamide Hydrochloride]
CCOc1cc(OC)c(C(=O)Nc2cccc3c2CCN(C)C3)cc1Cl [Example 23, N-(2-Methyl-1,2,3,4-tetrahydroisoquinolin-5-yl)-5-chloro-4-ethoxy-2-methoxybenzamide]
COc1cc(OC(C)C)c(C(C)=O)cc1C(=O)Nc1cccc2c1CCN(C)C2.Cl [Example 70, N-(2-Methyl-1,2,3,4-tetrahydroisoquinolin-5-yl)-2-methoxy-4-iso-propyloxy-5-acetyl-benzamide, Hydrochloride]
COc1cc(N)c(Br)cc1C(=O)Nc1cccc2c1CCN(C)C2 [Example 7, N-(2-Methyl-1,2,3,4-tetrahydroisoquinolin-5-yl)-4-amino-5-bromo-2-methoxybenzamide]
COc1cc(OC)c(C(=O)Nc2cccc3c2CCN(C)C3)cc1Cl [Example 16, N-(2-Methyl-1,2;3,4-tetrahydroisoquinolin-5-yl)-5-chloro-2,4-dimethoxybenzamide]
